In patent publication US20220213198A1, “METHOD OF TREATMENT” (The Council of the Queensland Institute of Medical Research, priority 2019, published 2022):

B1: 8F2.F9: anti-MR1 blocking antibody from hybridoma clone 8F2.F9, IgG1 isotype; heavy chain SEQ ID NO: 14, light chain SEQ ID NO: 18 (antibody, listed as Mus musculus, V domains shown)
VH: MKFSWVIFFLMAVVTGVNSEVQLQQSVAELVRPGASVKLSCTASGFNIKNTYMHWVKKRPELGLEWIGRIDPANGNTNFAPKFQGKATITADTSSNTAYLQLSSLTSEDTAIYYCPRGSGNYYFDYWGQGTTLTVSS
VL: MSSAQFLGLLLLCFQGTRCDIQMTQTTSSLSASLGDRVTISCRASQDISNYLNWYQQKPDGPVKLLIYYTSRLHSGVPSRFSGSGSGTDYSLTINNLAQEDIATYFCQQGNTLPYTFGGGTKLEIK

Tests used:
MAIT cells = assay: In vitro co-culture of purified splenic MAIT or conventional T cells with ligand-treated B16F10 cells; assay type: cell-based, mouse
B16F10 melanoma cells = assay: B16F10 experimental lung metastasis model; assay type: in vivo, mouse
Description: FIG. 2. […] (A) The schematic and timeline of expanding MAIT cells from splenocytes derived from C57BL/6 WT mice with IL-2 and 5-OP-RU, for sorting and adoptive transfer into tumor-bearing mice. (B, C) Groups of WT or MR1^−/− or Rag2cγ^−/− mice (n=5-6/group) were injected i.v. with (B) 1×10^5 or (C) 1×10^4 B16F10 melanoma cells. In some groups, sorted MAIT or T conventional cells (cT) (non-MAIT αβ^+ T cells) (2×10^5 cells/mouse) from C57BL/6 (B) WT or (C) TCRδ^−/− mice were i.v. injected into the indicated groups of mice one day before tumor inoculation. (C) One group of mice received i.v injection of media alone as a control. (B, C) On day 14 relative to tumor cell inoculation, lungs were harvested and the metastatic burden was quantified by counting colonies on the lung surface. Data presented as mean±SEM. (D) B16F10 or LWT1 melanoma cells were stimulated in vitro with DMSO or 5-OP-RU (100 nM) for 4 hours before cell surface MR1 expression was determined by flow cytometry. Groups of C57BL/6 WT or MR1^−/− mice (n=5-6/group) were i.v. injected with (E) 1×10^5 B16F10 or (F) 5×10^5 LWT1 cells melanoma cells pulsed with DMSO or 5-OP-RU (100 nM, 4 hours). Fourteen days later relative to tumor cell inoculation, lungs were harvested and the metastatic burden was quantified by counting colonies on the lung surface. Data presented as mean±SEM. Experiments performed once for (B, C, F) and three times for (D, E) with one representative experiment shown. Significant differences between groups as indicated by crossbars were determined using a one-way ANOVA followed by Tukey's post-hoc test (B, E, F), *p<0.05, **p<0.01, ****p<0.0001
FIG. 5. […] (A) Generation of three independent B16F10 cell lines knocked out for MR1 using three different MR1 sgRNA. […] Empty vector transfected B16F10 cells were used as a positive control. (B, C) Groups of C57BL/6 WT, MR1^−/− or Rag2cγ^−/− mice (n=5-6/group) were i.v. injected with either (B) 1×10^5 B16F10 vector control cells or the indicated clone of B16F10 cells lacking MR1 (sgR1, sgR2, sgR3) or (C) 1×10^4 B16F10-MR1^KO cells (sgR3 clone). On day 14 relative to tumor cell inoculation, lungs were harvested and the metastatic burden was quantified by counting colonies on the lung surface. Data presented as mean±SEM. (D) Re-expression of GFP or GFP-MR1 expressing vector into B16F10-MR1^KO (sgR3 clone). MR1 surface expressions of these cells stimulated with or without 5-OP-RU were assessed by flow cytometry. (E) Groups of C57BL/6 WT mice (n=6/group) were i.v. injected with 1×10^5 B16F10-MR1^KO (sgR3 clone) transfected with empty GFP-expressing vector or MR1-GFP-expressing vector. (F) Groups of C57BL/6 WT or MR1^−/− mice were i.v. injected with parental B16F10 cells treated with vehicle (dd H2O) or AC-6-FP (10 μM, 18 hours). On day 14 relative to tumor cell injection, lungs were harvested and the metastatic burden was quantified by counting colonies on the lung surface. Data presented as mean±SEM. Experiments performed twice for (A-E) and once for (F). Significant differences between groups as indicated by crossbars were determined by a one-way ANOVA followed by Tukey's post-hoc test (A, F), or a Mann-Whitney test (C, E), *p<0.05, **p<0.01, ****p<0.0001.
FIG. 6. […] Groups of C57BL/6 WT or MR1^−/− mice (n=5-6/group) were i.v. injected with (A, B) 1×10^5 B16F10, (C) 1×10^5 parental B16F10 or 2×10^5 B16F10-MR1^KO (sgR3 clone) melanoma cells and (D) 5×10^5 LWT1 melanoma cells or s.c injected with (E) 1×10^6 MCA1956 fibrosarcoma or (F) 1×10^6 SM1WT1 melanoma cells on day 0.

Molecule	cytokine production (MAIT cells; conventional T cells with treated vs DMSO-treated B16F10)	number of treated CTV-labeled B16F10 cells (MAIT cells; following co-culture with MAIT cells)	IFNγ, IL-17A and TNF production (MAIT cells; purified splenic MAIT cells with treated vs DMSO-treated B16F10)	number of lung metastases (B16F10 melanoma cells; MR1-/- mice i.v. injected with pre-treated B16F10, vs DMSO-treated, day 14)	number of lung metastases (B16F10 melanoma cells; WT mice i.v. injected with B16F10 pre-treated 100 nM 4 h, vs DMSO-treated, day 14)	number of lung metastases (B16F10 melanoma cells; B16F10 tumor-bearing MR1-/- mice, antibody vs cIg)	suppression of B16F10 lung metastases compared with the 26.5 clone (B16F10 melanoma cells; WT mice, 250 μg/mouse i.p.)	suppression of B16F10 lung metastases, three vs four doses (B16F10 melanoma cells; WT mice, 250 μg/mouse i.p., days -1, 0, 3 vs days -1, 0, 3 and 7)	B16F10-MR1 KO (sgR3) lung metastases numbers (B16F10 melanoma cells; WT mice, antibody vs cIg, days -1, 0 and 3)
CC(=O)C=Nc1c(NC[C@H](O)[C@H](O)[C@H](O)CO)[nH]c(=O)[nH]c1=O [5-OP-RU]	no increase in cytokine production	decrease	produced more	this increase was lost	significantly increased				
B1						no further decrease	superior	equivalently reduced	not reduced
